According to patent US10568933B2, “Beta-casein A2 and blood glucose levels” (THE A2 MILK COMPANY LIMITED, priority 2013, dated 2020):

Test system: SH-SY5Y cells
Test: Effect of BCM-7 on DNA methylation levels (MBD-seq)
Format: cell-based, human
Conditions: 1 μM, 4 hours
Procedure: Shifts in global DNA methylation patterns induced by BCM-7 were investigated using methyl-CpG binding domain (MBD) protein-enriched genome sequencing (MBD-seq) as described previously (Trivedi M., et al., Mol. Pharm. 2014), whereas mRNA translation microarray data was obtained using an Agilent V3 microarray chip, from non-treated control SH-SY5Y cells and cells treated for 4 hours with 1 μM BCM-7.
Genomic DNA was extracted from samples using the Easy DNA kit (Invitrogen K1800-01) using the appropriate protocol for cell lines. Fragmentation was performed on a Covaris S2 ultrasonicator using the following settings: duty cycle 10%, intensity 5, 200 cycles per burst during 200 sec. Fragments were obtained having an average length of 200 bp. The power mode is frequency sweeping, temperature 6-8° C., water level 12. […] DNA with an input from […] was analysed on the Agilent 2100 using a DNA 1000 chip. […] The concentrations of fragmented and captured DNA were determined on a Fluostar Optima plate reader with the Quant-iT PicoGreen dsDNA Assay Kit (Invitrogen P7589) at 480/520 nm. […]
The Illumina library amplification index protocol was used with the following alterations: 22 μl DNA was used and performed 21 cycles run. […] 1 μl was applied to an Agilent 2100 HS DNA chip and the concentration was determined by smear analysis on the Agilent 2100. […]

beta-casomorphin-7 [BCM-7]
Epigenetic status (DNA methylation) of genes responsible for glucose metabolism, synthesis and glucose homeostasis: altered
